Experimental data from US5039684A, “Tetrazole amide derivatives of heterocyclic alkenyl acid and their use as antiallergic substances” (Valeas S. p. A., priority 1989, dated 1991).
Where a name gives a salt, the structure may show the parent alone.

What was measured:
[1] = Acute toxicity in the mouse, oral administration; type: in vivo; details: mouse, in vivo, po, 1000 mg/kg, oral, 1000 mg/kg/os; read-out: mortality (%EAD)
Description: (§1) Acute toxicity was evaluated in the mouse by administering the compounds orally at scalar doses to a maximum of 1000 mg/kg to evaluate the 50% lethal dose (LD50). The compounds were administered in carboxymethylcellulose (0.5%) in a volume of […] to male mice (Swiss stock) of average weight 20 g.

[2] = tested on: mouse; assay: Acute toxicity in the mouse, oral administration; type: in vivo
Description: as §1

[3] = tested on: passive cutaneous anaphylaxis; assay: PCA test on the rat, intravenous administration just before challenge with antigen; type: in vivo, rat (male Sprague Dawley); details: for ED50: read-out: ED50 (conf. lim) P = 0.05
Description: (§2) The serum, obtained from rats actively sensitized with ovalbumin (antigen) and suitably diluted, was injected intradermically into the shaven back of male Sprague Dawley rats (2 wheals per rat).
(§3) The rats were treated intravenously after 24 hours with a solution of ovalbumin and Evans blue. Thirty minutes later they were killed and the diameter and intensity of the blue ring formed at the site of the intradermic injection were measured.
(§4) For each treated group (5 per group) the % inhibition was then calculated with respect to the control group.
The pharmacological screening was effected by administering the compounds of the present invention intravenously and orally.
(§5) For intravenous administration (2 ml/kg), those compounds in which R1 =H (see formula I) were dissolved in an aqueous 1% NaHCO3 solution whereas for oral administration (4 ml/Kg) they were either suspended in 0.5% carboxymethylcellulose or dissolved in an aqueous 3% NaHCO3 solution.

[4] = tested on: passive cutaneous anaphylaxis; assay: PCA test on the rat, oral administration before challenge with antigen; type: in vivo, rat (male Sprague Dawley); details: for inhibition in vivo at 3 mg/kg / inhibition in vivo at 10 mg/kg / inhibition in vivo at 30 mg/kg: read-out: inhibition (%); for ED50: 5 min, Table 2, oral administration, read-out: ED50 (conf. lim) P = 0.05; for ED50 OS/ED50 iv: oral 5 minutes before challenge / i.v. immediately before challenge; for inhibition (%): oral
Description: The serum, obtained from rats actively sensitized with ovalbumin (antigen) and suitably diluted, was injected intradermically into the shaven back of male Sprague Dawley rats (2 wheals per rat). The rats were treated intravenously after 24 hours with a solution of ovalbumin and Evans blue. Thirty minutes later they were killed and the diameter and intensity of the blue ring formed at the site of the intradermic injection were measured. […] The pharmacological screening was effected by administering the compounds of the present invention intravenously and orally. For intravenous administration (2 ml/kg), those compounds in which R1 =H (see formula I) were dissolved in an aqueous 1% NaHCO3 solution whereas for oral administration (4 ml/Kg) they were either suspended in 0.5% carboxymethylcellulose or dissolved in an aqueous 3% NaHCO3 solution.

[5] = tested on: passive cutaneous anaphylaxis; assay: PCA test on the rat, time response curve after oral administration; type: in vivo, rat (male Sprague Dawley); details: Rattus norvegicus; for inhibition in vivo at 30 mg/kg: read-out: inhibition %; for inhibition in vivo at 1 mg/kg: 1 mg/kg/os
Description: as §2, §3, §4, §5

[6] = Rattus norvegicus, iv, read-out: inhibition (%)
[7] = Rattus norvegicus, iv, 1 mg/kg, immediately before challenge, read-out: inhibition (%)
[8] = Rattus norvegicus, iv, 3 mg/kg, immediately before challenge
[9] = Rattus norvegicus, iv, 10 mg/kg, immediately before challenge
[10] = Rattus norvegicus, iv, immediately before challenge
[11] = Rattus norvegicus, po, 3 mg/kg, 5 minutes before challenge
[12] = Rattus norvegicus, po, 10 mg/kg, 5 minutes before challenge
[13] = Rattus norvegicus, po, 30 mg/kg, 5 minutes before challenge
[14] = Rattus norvegicus, po, 5 minutes before challenge
[15] = 5 min, oral, 30 mg/kg/os, 5 minutes before challenge
[16] = 0.25 h, oral, 30 mg/kg/os, 15 minutes before challenge
[17] = 0.5 h, oral, 30 mg/kg/os, 30 minutes before challenge
[18] = 1 h, oral, 30 mg/kg/os, 60 minutes before challenge
[19] = 2 h, oral, 30 mg/kg/os, 120 minutes before challenge
[20] = 3 mg/kg, 5 minutes before challenge

SMILES	mortality [1]	No. (dead) ([2]; oral, 1000 mg/kg/os, 8 treated)	No. (dead) ([2]; mouse, in vivo, po, 1000 mg/kg)	inhibition in vivo at 1 mg/kg [3, 7]	inhibition in vivo at 3 mg/kg [3, 8]	inhibition in vivo at 10 mg/kg [3, 9]	ED50 [3, 10]	inhibition in vivo at 3 mg/kg [4, 11]	inhibition in vivo at 10 mg/kg [4, 12]	inhibition in vivo at 30 mg/kg [4, 13]	ED50 [4, 14]	ED50 OS/ED50 iv [4]	inhibition in vivo at 30 mg/kg [5, 15]	inhibition in vivo at 30 mg/kg [5, 16]	inhibition in vivo at 30 mg/kg [5, 17]	inhibition in vivo at 30 mg/kg [5, 18]	inhibition in vivo at 30 mg/kg [5, 19]	inhibition (%) [4, 20]	also measured
O=C(/C=C/c1ccnc2ccccc12)Nc1nn[nH]n1 [VAL 47-067, N-1H-TETRAZOL-5-YL-[3-(4-QUINOLYL)] […] ISOMER]	12.5%	1																	ED50 ([3]; Rattus norvegicus, iv): 0.35 mg/kg; inhibition in vivo at 0.1 mg/kg [3, 6]: 1.1%; inhibition in vivo at 0.3 mg/kg [3, 6]: 53.6%; inhibition in vivo at 1 mg/kg [3, 6]: 81.8%; inhibition in vivo at 3 mg/kg ([4]; Rattus norvegicus, po): 8.3%; inhibition in vivo at 10 mg/kg ([4]; Rattus norvegicus, po): 0%; inhibition in vivo at 30 mg/kg ([4]; Rattus norvegicus, po): 16.7%; inhibition in vivo at 30 mg/kg ([5]; po, 5 min): 50.5%; inhibition in vivo at 30 mg/kg ([5]; po, 0.25 h): 29.3%; inhibition in vivo at 30 mg/kg ([5]; po, 0.5 h): 13.3%; inhibition in vivo at 30 mg/kg ([5]; po, 1 h): 0%; inhibition in vivo at 30 mg/kg ([5]; po, 2 h): 0%
O=C(/C=C/c1ccco1)Nc1nn[nH]n1 [VAL 47-010, N-1H-tetrazol-5-yl-[3-(2-furyl)]-acrylamide trans isomer]	25%		2	29%	40.2%	84.1%	3.13 mg/kg	9.6%	35.9%	80.9%	12.4 mg/kg	3.95	51.4%	44.8%	21.9%	6.6%	18.6%		inhibition in vivo at 30 mg/kg ([3]; Rattus norvegicus, iv, 30 mg/kg, immediately before challenge): 95.3%
Cc1ccc(/C=C/C(=O)Nc2nn[nH]n2)s1 [VAL 47-005, N-1H-tetrazol-5-yl-[3-[5-methyl-(2-thienyl)]] acrylamide trans isomer]	0%		0	20.3%	43.4%	89.4%	2.99 mg/kg		43.8%	75.3%	12.4 mg/kg	4.13	75.5%	61.4%	37.5%	0%	11.4%	9.6%	
Cc1ccc(/C=C/C(=O)Nc2nn[nH]n2)o1 [VAL 47-073, N-1H-tetrazol-5-yl-[3-[5-methyl-(2-furyl)]]-acrylamide trans isomer]	0%		0	3.4%	50.7%	95.1%	3.13 mg/kg	87.5%	89.3%		0.92 mg/kg	0.29							toxicity (in words) ([2]; oral, mouse): do not determine any toxic effect; inhibition in vivo at 0.3 mg/kg ([4]; Rattus norvegicus, po, 0.3 mg/kg, 5 minutes before challenge): 22%; inhibition in vivo at 1 mg/kg ([4]; Rattus norvegicus, po, 1 mg/kg, 5 minutes before challenge): 44%; inhibition in vivo at 1 mg/kg ([5]; 5 min, oral, 5 minutes before challenge): 52.6%; inhibition in vivo at 1 mg/kg ([5]; 0.25 h, oral, 15 minutes before challenge): 7.8%; inhibition in vivo at 1 mg/kg ([5]; 0.5 h, oral, 30 minutes before challenge): 19.8%; inhibition in vivo at 1 mg/kg ([5]; 1 h, oral, 60 minutes before challenge): 0%; inhibition in vivo at 1 mg/kg ([5]; 2 h, oral, 120 minutes before challenge): 0%
Cc1ccc(/C=C/C(=O)Nc2nn[nH]n2)s1 [VAL 47-005Na, N-1H-tetrazol-5-yl-[3-[5-methyl-(2-thienyl)]] acrylamide sodium salt trans isomer]		0																26.7%	mortality (%EAD) ([2]; oral, 1000 mg/kg/os): 0%; inhibition (%) ([3]; i.v., 1 mg/kg, immediately before challenge): 16.5%; inhibition (%) ([3]; i.v., 3 mg/kg, immediately before challenge): 40.7%; inhibition (%) ([3]; i.v., 10 mg/kg, immediately before challenge): 78.0%; ED50 (conf. lim) P = 0.05 ([3]; i.v., immediately before challenge): 3.74 (2.89-4.85) mg/kg/iv; inhibition (%) ([4]; 10 mg/kg, 5 minutes before challenge): 54.7%; inhibition (%) ([4]; 30 mg/kg, 5 minutes before challenge): 65.8%
